Measurements: ChEMBL document CHEMBL1201862, “PubChem BioAssay data set” (2004)
The source made the active and inactive calls.

Assays:
[1] = Luminescence Cell-Based Dose Confirmation HTS to Identify Activators of 5'UTR Stem-Loop Driven Alpha-Synuclein mRNA Translation in H4 Neuroglioblastoma Cells. [Related pubchem assays: 1829 (Project Summary), 1814 (Primary HTS)]; type: functional
[2] = Luminescence Cell-Based Dose Response HTS to Identify Activators of Luciferase Translation or Activity in H4 […] Cells. [Related pubchem assays: 1829 (Project Summary), 1814 (Primary HTS)]; type: functional
H4 = assay: Luminescence Cell-Based Dose Response HTS to Identify Activators of 5'UTR Stem-Loop Driven Prion Protein mRNA Translation in H4 Neuroglioblastoma Cells. [Related pubchem assays: 1829 (Project Summary), 1814 (Primary HTS)]; type: functional; conditions: Homo sapiens
Bcl-2-like protein 10 = target: T1, Bcl-2-like protein 10 (Homo sapiens, UniProt Q9HD36); assay: displacers of TR3 peptide from Bcl-B, primary screen, selectivity assay for Bfl-1 inhibitor project, biochemical, fluorescence polarization, FITC-TR3 peptide (AID 748);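 also: fluorescence polarization from a fluorescein-labelled TR3 peptide binding purified Bcl-B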
T1 sequence (Q9HD36 whole entry): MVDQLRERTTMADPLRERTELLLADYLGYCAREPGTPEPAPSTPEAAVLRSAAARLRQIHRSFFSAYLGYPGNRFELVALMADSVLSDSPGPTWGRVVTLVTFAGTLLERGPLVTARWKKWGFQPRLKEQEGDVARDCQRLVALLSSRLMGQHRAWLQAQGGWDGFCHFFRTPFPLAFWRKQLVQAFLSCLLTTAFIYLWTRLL

[3] = HepG2 cell cytotoxicity, dose response, cytotoxicity control, ATP luminescence, cherry-pick, activator set 2 (AID 1053143); type: functional, cell-based
[4] = target: T2, Oxysterols receptor LXR-beta (Homo sapiens, UniProt P55055); type: functional, cell-based;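 also: agonist activity at LXR measured by a cell-based luminescence readout across a dose range, run as a counterscreen for daf-12 agonists; HEK293 cells with Gal4-LXR fusion and GAL4-driven luciferase reporter; potency for activation of Gal4-LXR reporter so compounds are agonists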
T2 sequence (P55055 whole entry): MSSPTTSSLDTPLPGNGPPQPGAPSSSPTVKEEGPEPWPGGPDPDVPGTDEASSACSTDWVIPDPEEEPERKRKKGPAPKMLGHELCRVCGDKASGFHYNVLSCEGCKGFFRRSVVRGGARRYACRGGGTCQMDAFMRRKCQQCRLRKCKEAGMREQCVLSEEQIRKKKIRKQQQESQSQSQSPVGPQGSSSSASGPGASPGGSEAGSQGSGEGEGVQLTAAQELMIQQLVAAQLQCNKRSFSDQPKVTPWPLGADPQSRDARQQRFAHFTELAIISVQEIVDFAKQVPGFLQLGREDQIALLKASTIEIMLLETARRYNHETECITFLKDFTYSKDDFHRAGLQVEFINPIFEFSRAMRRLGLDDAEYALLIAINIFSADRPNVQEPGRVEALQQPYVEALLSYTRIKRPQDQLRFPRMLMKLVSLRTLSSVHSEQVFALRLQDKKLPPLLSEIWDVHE

[5] = target: Glyceraldehyde-3-phosphate dehydrogenase (Homo sapiens, UniProt P04406)
[6] = inhibitors of PGC1a acetylation in cells, dose response, cell-based, cherry-picked samples (AID 720514); type: functional;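 also: potency may reflect raised or lowered acetylation signal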
[7] = M. tuberculosis H37Rv growth inhibitors, H37Rv strain (AID 1626); type: functional
Major prion protein = Major prion protein (Homo sapiens, UniProt P04156); type: functional, cell-based
Trypsin = Trypsin (Sus scrofa, UniProt P00761); assay: porcine trypsin inhibitors, dose response, selectivity assay for Rce1 protease inhibitor project, biochemical, quenched peptide fluorescence, cherry-pick (AID 488789)
[8] = growth suppression of beta-catenin-knockout colon cells, dose response, cell-based, HCT116, human colon tumor (AID 1045); type: functional;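 also: HCT116 colon tumor cells with beta catenin knocked out; cells exposed to compound for 60 hours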
[9] = growth suppression of PTEN-null colon cells, dose response, cell-based, HCT116 PTEN knockout (AID 1047); type: functional;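 also: HCT116 colon tumor cells with PTEN knocked out; cells exposed to compound for 60 hours before readout; potency for loss of cell viability measured by luminescence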
[10] = C. albicans growth with fluconazole, confirmation, fluorescence, retest (AID 2467); type: functional, cell-based
[11] = NIH-3T3 fibroblast cytotoxicity, dose response, cytotoxicity control, cell-based, fluorescence, Alamar Blue, secondary assay (AID 2327); type: functional;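 also: NIH-3T3 mouse fibroblasts cultured with fluconazole at 8 µg/mL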
[12] = human group III sPLA2 inhibitors, dose response, biochemical, QFRET, IC50 (AID 743457);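 also: green fluorescence rise as the enzyme cleaves BODIPY PC-A2 in liposomes; potency for inhibition of the enzyme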
[13] = target: T3, Calpain-2 catalytic subunit (Sus scrofa, UniProt P43367); assay: pig calpain II inhibitor potency, dose response, biochemical, fluorogenic peptide substrate (AID 1420); type: functional
T3 sequence (P43367 whole entry): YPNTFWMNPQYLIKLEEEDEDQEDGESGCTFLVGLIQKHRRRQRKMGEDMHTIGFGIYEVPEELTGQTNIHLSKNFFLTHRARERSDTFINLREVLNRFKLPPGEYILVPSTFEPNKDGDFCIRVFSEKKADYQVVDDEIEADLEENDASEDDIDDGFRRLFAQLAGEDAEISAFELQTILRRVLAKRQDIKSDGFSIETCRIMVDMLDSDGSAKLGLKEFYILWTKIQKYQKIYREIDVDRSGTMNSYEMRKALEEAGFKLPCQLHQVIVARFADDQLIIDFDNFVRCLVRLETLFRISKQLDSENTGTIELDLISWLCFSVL

[14] = target: T4, Rac GTPase-activating protein 1 (Homo sapiens, UniProt Q9H0H5); assay: MgcRacGAP GTPase-activating activity inhibitors, confirmation, biochemical, ADP Hunter fluorescence, primary and confirmatory (AID 624330); type: functional
T4 sequence (Q9H0H5 whole entry): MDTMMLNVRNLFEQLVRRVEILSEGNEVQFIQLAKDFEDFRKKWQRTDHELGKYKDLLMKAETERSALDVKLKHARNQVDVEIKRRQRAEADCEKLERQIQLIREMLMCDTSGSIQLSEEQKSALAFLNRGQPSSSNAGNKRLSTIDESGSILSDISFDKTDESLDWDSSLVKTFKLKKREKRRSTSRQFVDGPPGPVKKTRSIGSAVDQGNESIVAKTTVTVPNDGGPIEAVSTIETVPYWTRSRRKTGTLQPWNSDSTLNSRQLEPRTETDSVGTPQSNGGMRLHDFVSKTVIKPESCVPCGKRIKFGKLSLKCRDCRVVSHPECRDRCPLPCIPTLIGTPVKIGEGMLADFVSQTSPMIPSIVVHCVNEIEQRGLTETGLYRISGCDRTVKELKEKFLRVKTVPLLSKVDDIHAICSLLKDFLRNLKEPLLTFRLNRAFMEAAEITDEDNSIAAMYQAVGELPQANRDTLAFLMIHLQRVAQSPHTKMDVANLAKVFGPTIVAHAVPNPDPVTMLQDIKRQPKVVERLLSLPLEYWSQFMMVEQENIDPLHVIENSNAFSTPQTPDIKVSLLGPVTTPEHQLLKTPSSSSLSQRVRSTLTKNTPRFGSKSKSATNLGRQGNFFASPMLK

[15] = HepG2 cell cytotoxicity, dose response, cytotoxicity control for Shn3 inhibitor project, CellTiter-Glo, cherry-picked (AID 624134); type: functional, cell-based
[16] = Luminescence-based counterscreen assay for KLF5 inhibitors: dose response cell-based high throughput screening assay to identify cytotoxic compounds using the IEC-6 intestinal epithelial cell line. [Related pubchem assays: 1700 (Primary screen.), 1834 (Confirmation screen.), 1858 (Summary AID.), 1905 (Counterscreen.)]; type: functional
[17] = target: T5, COUP transcription factor 2 (Homo sapiens, UniProt P24468); assay: Luminescence-based cell-based high throughput dose response assay to identify inhibitors of COUP-TFII (NR2F2).; type: functional;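 also: HEK293 cells transiently cotransfected with COUP-TFII expression vector and reporter; luciferase reporter luminescence driven by COUP-TFII from the pX2-168 reporter plasmid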
T5 sequence (P24468 whole entry): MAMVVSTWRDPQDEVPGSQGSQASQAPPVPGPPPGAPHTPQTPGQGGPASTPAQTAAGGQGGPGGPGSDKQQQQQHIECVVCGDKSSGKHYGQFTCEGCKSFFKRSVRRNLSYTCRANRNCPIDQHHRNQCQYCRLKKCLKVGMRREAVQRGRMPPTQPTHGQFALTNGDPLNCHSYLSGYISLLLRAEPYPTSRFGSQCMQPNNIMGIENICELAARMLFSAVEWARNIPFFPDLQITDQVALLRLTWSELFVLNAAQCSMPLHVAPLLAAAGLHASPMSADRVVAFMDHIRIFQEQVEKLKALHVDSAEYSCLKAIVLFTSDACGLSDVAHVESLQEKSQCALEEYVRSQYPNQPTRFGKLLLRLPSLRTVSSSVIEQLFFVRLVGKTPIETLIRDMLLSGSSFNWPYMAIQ

Protein Wnt-3a = Protein Wnt-3a (Mus musculus, UniProt P27467); assay: Wnt3a-driven reporter signaling inhibition, dose response, selectivity assay for Gli-SUFU antagonist project, Wnt-LIGHT cells, luminescence (AID 651570); type: functional; conditions: read-out: IC50_Mean;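 also: Wnt-LIGHT reporter cells stimulated with conditioned medium from Wnt3a-producing cells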
[18] = control 3'UTR Renilla luciferase suppression, dose response, counter-screen for Shn3 inhibitor project, cell-based, Clone20-Shn3RL, cherry-picked (AID 624133); type: functional
[19] = insulin promoter down-regulators in MIN6 cells, imaging, high-content screening, mouse beta cells (AID 1628); type: functional
[20] = cytotoxicity in MIN6 insulinoma cells, dose response, cytotoxicity control, cell-based, mouse insulinoma (AID 2122); type: functional;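 also: confirmatory high-throughput counterscreen run to flag cytotoxic compounds; mouse MIN-6 beta cells carrying an insulin promoter eGFP reporter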
[21] = inhibitors of Vif binding to APOBEC3G peptide, primary screen, biochemical, TR-FRET, GST-Vif 1-94, biotin-A3G peptide, dose response retest (AID 1117319); type: functional;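 also: TR-FRET signal of purified GST-Vif binding a biotinylated A3G peptide; inhibitors lower the FRET signal by blocking Vif and A3G binding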
[22] = Luminescence Cell-Based Dose Retest to Confirm Inhibitors of Cancer Stem Cells. [Related pubchem assays (depositor defined):AID2717, AID2721]; type: functional; conditions: Homo sapiens
Protein Tat = target: T6, Protein Tat (Human immunodeficiency virus type 1 group M subtype B (isolate HXB2)(HIV-1), UniProt P04608); type: functional;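 also: tat binding to TAR RNA read out by fluorescence polarization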
T6 sequence (P04608 whole entry): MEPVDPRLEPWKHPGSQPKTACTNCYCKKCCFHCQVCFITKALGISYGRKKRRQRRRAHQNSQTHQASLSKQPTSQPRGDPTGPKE

[23] = Shn3 3'UTR reporter inhibitors, dose response, cell-based, Clone20 osteoblasts, firefly luciferase, cherry-picked (AID 624132); type: functional;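 also: firefly luciferase luminescence from reporter carrying the Shn3 3'UTR in osteoblasts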
[24] = A549 cell cytotoxicity, dose response, cytotoxicity control, plate reader, cherry-pick, antagonist series (AID 743412); type: functional, cell-based
[25] = LGR2 antagonists, dose response, cell-based, HEK293, CRE-luciferase reporter, cherry pick, set 2 (AID 743343); type: functional;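 also: transfected cells were stimulated with diluted bursicon conditioned medium after compound addition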
[26] = MC4R antagonists, dose response, counter-screen for LGR2 antagonist project, cell-based, plate reader, cherry pick (AID 743444); type: functional;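 also: transfected HEK 293 cells stimulated with alpha-MSH peptide; potency of inhibitors of the alpha-MSH evoked signal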

O=C(CCN1CCc2ccccc21)c1ccc2c(c1)OCCO2
EC50 [1]: 53.2 µM (active) | EC50 [2]: 110 µM (active) | EC50 (H4): 46.1 µM (active) | IC50 (Bcl-2-like protein 10): 59.3 µM (inactive)

O=C(Nc1ncccc1O)c1cc2ccccc2o1
AC50 [3]: 26 µM (active) | EC50 [4]: > 67.6 µM (inactive)

COc1ccc(N2CCN(C3=C(Cl)C(=O)N(c4cccc(C)c4)C3=O)CC2)cc1
IC50 [5]: > 50 µM (inconclusive)

CCc1ccc(NC(=O)CSc2nnc(-c3cnccn3)n2Cc2ccco2)cc1
AC50 [6]: 32.5 µM (active)

CCCc1ccc(-c2cc(C(=O)NC3=NCCS3)c3ccccc3n2)cc1
IC50 [7]: > 100 µM (active)

Cc1nc2ccc(Br)cc2c(-c2ccccc2)c1C(=O)O
IC50 (Major prion protein): 5.47 µM (active) | IC50 (cells): > 138 µM (inactive)

COc1ccc(Nc2cc(C)nc3nc(C)nn23)cc1Cl
IC50 (Bcl-2-like protein 10): > 100 µM (inactive)

O=C(COc1ccccc1)Nc1cccc(-c2nc3cc4ccccc4cc3[nH]2)c1
AC50 (Trypsin): 5.74 µM (active) | EC50 [8]: 12.1 µM (active) | EC50 [9]: 11.8 µM (active) | EC50 [10]: 1.64 µM (active) | EC50 [11]: 7.43 µM (active)

Cc1cc(NC(=O)c2ccccc2)ncc1NC(=O)c1ccco1
AC50 [3]: 26 µM (active)

Cc1ccc2nc(NNC(=O)c3ccc4c(c3)OCCO4)sc2c1
IC50 [12]: > 122 µM (inactive)

NC(=O)c1ccc(-c2ccc(Br)cc2)o1
IC50 (Major prion protein): 7.42 µM (active) | IC50 (cells): > 138 µM (inactive)

COC(=O)CSc1nc(Cc2ccccc2)nc2ccccc12
IC50 (Major prion protein): 3.29 µM (active) | IC50 (cells): > 138 µM (inactive)

O=C1C(Cl)=C(N2CCN(CCOCCO)CC2)C(=O)N1c1cccc(C(F)(F)F)c1
IC50 [5]: > 50 µM (inconclusive)

COCC(=O)Nc1ccc(Br)c(C)c1
IC50 [7]: > 100 µM (active)

COc1ccc(NC(C)c2cc(Cl)ccc2O)cc1 (centres undefined)
IC50 [7]: > 100 µM (active) | IC50 [13]: 13.9 µM (not active) | IC50 [14]: 69.1 µM (active)

CC(C)CC(NC(=O)CCCNC(=O)CCC(=O)OC1O[C@H]2OC3(C)CC[C@H]4[C@H](C)CCC(C1C)C24OO3)C(=O)O (some centres undefined)
AC50 [15]: > 70 µM (inactive) | IC50 [16]: 31.8 µM (not active) | IC50 [17]: > 85.4 µM (inactive) | IC50 (Protein Wnt-3a): 0.304 µM (active) | AC50 [18]: 5.65 µM (active)

COc1ccc(C(NC(=O)c2c(F)c(F)c(F)c(F)c2F)c2ccccc2)cc1 (centres undefined)
AC50 [6]: 4.77 µM (active) | EC50 [8]: 16.8 µM (active) | EC50 [9]: 27.4 µM (active) | IC50 [19]: 1.79 µM (active) | IC50 [20]: 1.7 µM (active)

COCCNc1nnc(SC(C)C(=O)Nc2ccc(-c3nc4ccc(C)cc4s3)cc2)s1 (centres undefined)
EC50 [8]: 39.1 µM (active) | EC50 [9]: 30 µM (active) | IC50 [21]: > 50 µM (active) | AC50 [22]: 10.5 µM (active) | IC50 (Protein Tat): > 100 µM (active)

O=C1/C(=C/c2ccccn2)SC(=S)N1Nc1ncc(C(F)(F)F)cc1Cl
AC50 [23]: 49.9 µM (active) | AC50 [18]: 33.1 µM (active) | IC50 [12]: 47.8 µM (inactive)

N#C[C@@H]1[C@H](c2ccc(C#CC3CCCCC3)cc2)[C@@H](CO)N1S(=O)(=O)c1ccccc1
AC50 [24]: 27.9 µM (active) | AC50 [25]: 12.8 µM (active) | AC50 [26]: 8.18 µM (active)
